The text below walks through data of publication PMC6479757, “Coralmycin Derivatives with Potent Anti-Gram Negative Activity Produced by the Myxobacteria Corallococcus coralloides M23” (Molecules, 2019).

Converted amounts (≈) assume the structure as drawn. Where two headings read alike, the source gives them in different places.

One experiment addresses T1, E. coli DNA gyrase (Escherichia coli, UniProt P0AES4+P0AES6).
T1 construct: purchased TopoGEN TG2001G
The experiment in a line: DNA gyrase supercoiling assay. It is filed as biochemical. On the procedure:
The inhibitory activities of coralmycins on the supercoiling activity of DNA gyrase were investigated using a ‘Purified E. coli DNA Gyrase Drug Screening Kit’ (TopoGEN #TG2001G, Buena Vista, CO, USA). […] The reaction was terminated by the addition of 2 μL of 10% (w/v) SDS and 2 μL of 10× DNA gel loading dye (bromophenol blue). Then, 20 μL of chloroform:isoamyl alcohol (24:1 mixture) was added, and the mixture was vortexed and then centrifuged. The samples in the blue phase were run on 1% (w/v) agarose gel and were visualized using ethidium bromide. All reactions were performed in triplicate. To calculate the IC50 values, the band densities were measured using ImageJ (National Institutes of Health, Bethesda, Maryland, MD, USA).

Experiment [1] concerns Klebsiella pneumoniae KCTC 22057. Put plainly: Antibacterial susceptibility, broth microdilution MIC. It is filed as cell-based. The note with it: KCTC22057; Klebsiella pneumoniae KCTC 22057; 24-h incubation at 37 °C. As to the method:
(§1) Whole-cell antimicrobial activities were determined using a broth microdilution method described previously. Most of the test strains were grown to mid-log phase in Mueller–Hinton broth and diluted 1,000-fold in the same medium. Cells (10^5/mL) were dispensed at 0.2 mL/well in 96-well microtiter plates. Streptococcus pneumonia and Acinetobacter baumanii were grown in Todd–Hewitt medium and nutrient broth, respectively. […]. Cells were treated with 0.05% DMSO as a vehicle control. The MICs were determined in triplicate by serial two-fold dilutions of the test compounds. […] Bacterial growth was determined by measuring the absorption at 650 nm using a microtiter enzyme-linked immunosorbent assay (ELISA) reader (Molecular Devices Corporation, Sunnyvale, CA, USA).

Another experiment relates to QRSA CCARM 3505. The description is as above. It is filed as cell-based. The note with it: Staphylococcus aureus, CCARM3505; QRSA CCARM 3505; 24-h incubation at 37 °C; read-out: MIC. On the procedure:
as §1

For experiment [2], the system named is Streptococcus pneumonia KCTC 5412. The description is as above. The note with it: Streptococcus pneumoniae, KCTC5412, Todd–Hewitt medium, 24-h incubation at 37 °C. It is filed as cell-based. On the procedure: as §1
A further experiment relates to E. coli CCARM 1356. The description is as above. The note with it: Escherichia coli, CCARM1356, 24-h incubation at 37 °C. It is filed as cell-based. As to the method:
as §1

The next experiment deals with E. coli KCTC 1682. Described as above. It is filed as cell-based. To be noted: Escherichia coli. As to the method: as §1
Experiment [3] deals with Pseudomonas aeruginosa KCTC 2004. Described as above. It is filed as cell-based. The note with it: KCTC2004; Pseudomonas aeruginosa KCTC 2004; 24-h incubation at 37 °C. As to the method:
as §1

Experiment [4] has as its system Enterococcus faecalis KCTC 5191. Described as above. It is filed as cell-based. To be noted: KCTC5191, 24-h incubation at 37 °C. On the procedure: as §1
A further experiment relates to QRSA CCARM 3519. Described as above. It is filed as cell-based. The note with it: Staphylococcus aureus, CCARM3519; QRSA CCARM 3519; 24-h incubation at 37 °C; read-out: MIC. On the procedure:
as §1

Another experiment concerns MRSA CCARM 3506. The experiment is described as above. It is filed as cell-based. The note with it: Staphylococcus aureus, 24-h incubation at 37 °C. On the procedure: as §1
A further experiment concerns MRSA CCARM 3167. The experiment is described as above. It is filed as cell-based. To be noted: Staphylococcus aureus, 24-h incubation at 37 °C. On the procedure:
as §1

Experiment [5] concerns Acinetobacter baumannii KCTC 2508. The experiment is described as above. It is filed as cell-based. To be noted: KCTC2508, nutrient broth, 24-h incubation at 37 °C. On the procedure:
as §1

The test system of experiment [6] is Staphylococcus aureus RN 4220. Described as above. It is filed as cell-based. The note with it: RN4220, 24 h. As to the method:
(§2) Whole-cell antimicrobial activities were determined using a broth microdilution method described previously. Most of the test strains were grown to mid-log phase in Mueller–Hinton broth and diluted 1,000-fold in the same medium. Cells (10^5/mL) were dispensed at 0.2 mL/well in 96-well microtiter plates. Streptococcus pneumonia and Acinetobacter baumanii were grown in Todd–Hewitt medium and nutrient broth, respectively. […] Cells were treated with 0.05% DMSO as a vehicle control. The MICs were determined in triplicate by serial two-fold dilutions of the test compounds. […] Bacterial growth was determined by measuring the absorption at 650 nm using a microtiter enzyme-linked immunosorbent assay (ELISA) reader (Molecular Devices Corporation, Sunnyvale, CA, USA).

The target in a further experiment is DNA gyrase. The note with it: read-out: IC50, DNA gyrase-inhibitory activity; cited from earlier work.
For experiment [7], the system named is Gram-negative and Gram-positive bacteria. The note with it: cited from earlier work.
Experiment [8] concerns Gram-negative pathogens as well as Gram-positive bacteria. On the set-up: method as in PMID 27598688. The note with it: compared with 11; cited from earlier work.
A further experiment relates to tested bacterial strains. The experiment in a line: Antibacterial activity against all tested strains. To be noted: at 32 μg/mL. It is filed as cell-based. As to the method:
as §2

In another experiment the test system is Gram-negative bacteria. Put plainly: Antibacterial activity against Gram-negative bacteria. To be noted: at 32 μg/mL. It is filed as cell-based. As to the method:
as §2

A further experiment concerns Gram-negative pathogens. The note with it: compared with 12; cited from earlier work.
Setting [9] is: relaxed plasmid, 37 °C for 30 min, agarose gel band densities, read-out: IC50, inhibition of the supercoiling activity of E. coli DNA gyrase.
Where [10] appears, read: KCTC1682, 24-h incubation at 37 °C, Table 6 and Table S1, read-out: MIC.
[11] abbreviates: KCTC1682, Table 7, read-out: MIC, antibacterial activity on E. coli KCTC 1682.

T1 sequence (P0AES4 whole entry, one chain of several): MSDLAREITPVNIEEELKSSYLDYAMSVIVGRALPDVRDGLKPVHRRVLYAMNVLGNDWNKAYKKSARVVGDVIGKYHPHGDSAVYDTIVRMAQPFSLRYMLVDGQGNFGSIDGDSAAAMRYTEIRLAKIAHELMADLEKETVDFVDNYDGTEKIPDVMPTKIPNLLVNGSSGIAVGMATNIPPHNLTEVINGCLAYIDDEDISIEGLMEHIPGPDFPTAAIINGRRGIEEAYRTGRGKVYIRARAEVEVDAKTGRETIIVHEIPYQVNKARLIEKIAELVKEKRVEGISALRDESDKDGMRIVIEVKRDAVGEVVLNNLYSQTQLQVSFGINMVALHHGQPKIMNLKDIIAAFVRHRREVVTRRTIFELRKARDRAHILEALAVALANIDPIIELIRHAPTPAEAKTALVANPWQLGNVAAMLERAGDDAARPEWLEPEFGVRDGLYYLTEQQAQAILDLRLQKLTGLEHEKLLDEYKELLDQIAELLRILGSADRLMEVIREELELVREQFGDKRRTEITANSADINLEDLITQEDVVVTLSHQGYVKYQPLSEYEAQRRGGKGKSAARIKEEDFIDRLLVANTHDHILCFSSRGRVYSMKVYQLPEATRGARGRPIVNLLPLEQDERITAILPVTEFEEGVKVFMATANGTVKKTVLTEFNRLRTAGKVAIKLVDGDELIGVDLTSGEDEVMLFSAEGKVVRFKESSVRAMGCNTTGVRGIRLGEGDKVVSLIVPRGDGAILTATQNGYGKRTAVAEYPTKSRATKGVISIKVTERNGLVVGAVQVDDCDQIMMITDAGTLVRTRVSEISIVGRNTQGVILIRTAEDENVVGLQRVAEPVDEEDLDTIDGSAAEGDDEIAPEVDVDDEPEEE

With `CC(C)Oc1cc(C(=O)O)ccc1NC(=O)c1ccc(NC(=O)c2ccc(N)cc2)c(OC(C)C)c1O` [Compound 10, cystobactamid 507], the IC50 on E. coli DNA gyrase (setting [9]) was over 300 µM; at DNA gyrase, 20.2 µM. In addition, the MIC (in experiment [1]; in the experiment with QRSA CCARM 3505; in experiment [2]; with E. coli CCARM 1356; in the experiment with E. coli KCTC 1682 (setting [10]); in the experiment on E. coli KCTC 1682 (setting [11])) was over 32 µg/mL in each case. Also, the MIC (in experiment [3]; in [4]; in the experiment with QRSA CCARM 3519; against MRSA CCARM 3506; against MRSA CCARM 3167; in experiment [5]) was over 32 µg/mL throughout. The same compound had an MIC in [6] of over 32 µg/mL. In addition, in experiment [7] (in words), the antibacterial activity entry is listed as “weak antibacterial activity”. Further, the “MICs against Gram-negative and Gram-positive bacteria” value in experiment [7] (reported range) was 4 to 65 µg/mL.

In the case of `CO[C@@H](C(N)=O)[C@H](NC(=O)c1ccc(NC(=O)c2ccc([N+](=O)[O-])cc2)cc1)C(=O)Nc1ccc(C(=O)Nc2ccc(C(=O)Nc3ccc(C(=O)O)c(O)c3OC(C)C)c(O)c2OC(C)C)cc1` [Compound 12, coralmycin A, reference compound], the IC50 at E. coli DNA gyrase (setting [9]) turned out to be 0.08 µM. Also, the MIC in experiment [1] was found to be 2 µg/mL (≈ 2.14 µM); with QRSA CCARM 3505 it was 0.125 µg/mL (≈ 0.134 µM); in experiment [2] it was 0.25 µg/mL (≈ 0.267 µM); against E. coli CCARM 1356, 0.125 µg/mL (≈ 0.134 µM); in the experiment on E. coli KCTC 1682 (setting [10]), 0.125 µg/mL (≈ 0.134 µM); with E. coli KCTC 1682 (KCTC1682, 24 h, Table 7, read-out: MIC, antibacterial activity on E. coli KCTC 1682), 0.25 µg/mL (≈ 0.267 µM). In addition, the MIC is 4 µg/mL (≈ 4.27 µM) in experiment [3]; 0.03 µg/mL (≈ 0.0321 µM) in experiment [4]; 0.25 µg/mL (≈ 0.267 µM) in the experiment on QRSA CCARM 3519; 0.015 µg/mL (≈ 0.016 µM) in the experiment with MRSA CCARM 3506; 0.015 µg/mL (≈ 0.016 µM) against MRSA CCARM 3167; 0.125 µg/mL (≈ 0.134 µM) in experiment [5]. This compound also displayed an MIC in experiment [6] of 0.015 µg/mL (≈ 0.016 µM). Besides, the “antibacterial activity relative to 11 (times higher)” value in experiment [8] is reported as 10 times.

Regarding `CO[C@@H](C(N)=O)[C@H](NC(=O)c1ccc(N)cc1)C(=O)Nc1ccc(C(=O)Nc2ccc(C(=O)Nc3ccc(C(=O)O)cc3OC(C)C)c(O)c2OC(C)C)cc1` [Compound 3, Coralmycin E], at E. coli DNA gyrase (setting [9]), the IC50 was 39.1 µM. Also, the MIC (in [1]; in the experiment with QRSA CCARM 3505; in experiment [2]; against E. coli CCARM 1356; in the experiment on E. coli KCTC 1682 (setting [10]); with E. coli KCTC 1682 (setting [11])) was over 32 µg/mL each time. Also, the MIC (in experiment [3]; in experiment [4]; in the experiment with QRSA CCARM 3519; with MRSA CCARM 3506; in the experiment with MRSA CCARM 3167; in experiment [5]) was over 32 µg/mL each time. In [6], this compound yielded an MIC of over 32 µg/mL. Also, in the experiment on tested bacterial strains, the “antibacterial activities against any of the tested bacterial strains” value was “no antibacterial activities”.

On to `CO[C@@H](C(=O)O)[C@H](NC(=O)c1ccc(NC(=O)c2ccc([N+](=O)[O-])cc2)cc1)C(=O)Nc1ccc(C(=O)Nc2ccc(C(=O)Nc3ccc(C(=O)O)cc3OC(C)C)c(O)c2OC(C)C)cc1` [Compound 1, Coralmycin C], for which, at E. coli DNA gyrase (setting [9]), the IC50 was found to be 0.42 µM. For the same compound, the MIC in experiment [1] is over 32 µg/mL; in the experiment on QRSA CCARM 3505 it was 4 µg/mL (≈ 4.34 µM); in experiment [2] it was 4 µg/mL (≈ 4.34 µM); against E. coli CCARM 1356 it was over 32 µg/mL; in the experiment on E. coli KCTC 1682 (setting [10]), over 32 µg/mL; in the experiment with E. coli KCTC 1682 (setting [11]) it was over 32 µg/mL. The MIC in [3] was over 32 µg/mL; in experiment [4], 8 µg/mL (≈ 8.69 µM); with QRSA CCARM 3519 it was 4 µg/mL (≈ 4.34 µM); against MRSA CCARM 3506, 4 µg/mL (≈ 4.34 µM); against MRSA CCARM 3167, 4 µg/mL (≈ 4.34 µM); in experiment [5], over 32 µg/mL. The same compound gave an MIC in experiment [6] of 4 µg/mL (≈ 4.34 µM). For the same compound, the “antibacterial activity against Gram-negative bacteria” value in the experiment on Gram-negative bacteria is recorded as “no antibacterial activity”.

With `CCOc1cc(C(=O)O)ccc1NC(=O)c1ccc(NC(=O)c2ccc(N)cc2)c(OCC)c1O` [Compound 4, Coralmycin F], the IC50 on E. coli DNA gyrase is over 300 µM. For the same compound, the MIC (in experiment [1]; with QRSA CCARM 3505; in [2]; against E. coli CCARM 1356; in the experiment on E. coli KCTC 1682 (setting [10]); in the experiment with E. coli KCTC 1682 (setting [11])) was over 32 µg/mL in each case. The MIC (in experiment [3]; in experiment [4]; with QRSA CCARM 3519; with MRSA CCARM 3506; in the experiment with MRSA CCARM 3167; in [5]) was over 32 µg/mL throughout. This compound also yielded an MIC in experiment [6] of over 32 µg/mL.

For `CO[C@@H](C(N)=O)[C@H](NC(=O)c1ccc(NC(=O)c2ccc([N+](=O)[O-])cc2)cc1)C(=O)Nc1ccc(C(=O)Nc2ccc(C(=O)Nc3ccc(C(=O)O)cc3)c(O)c2OC(C)C)cc1` [cystobactamid 861-2], the “antibacterial activity against Gram-negative pathogens relative to 12 (times higher)” value in the experiment with Gram-negative pathogens is recorded as 4–10 times.
